Among the test systems are TK-10; A498; MDA-MB-435; RPMI-8226; HCT-15; A549; UO-31; SNB-75; OVCAR-8; HOP-92; U-251; 786-0; SR; SK-OV-3; PC-3; SK-MEL-2; NCI/ADR-RES; SN12C; HCC 2998; SF-268.
Holding throughout (experiment): growth of human tumour cells (NCI), 48 h

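Method: 48-hour compound exposure of cells in 96-well plates, five concentrations, linear interpolation of endpoints. At the GI50, growth is halved.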 Active and inactive are the calls of the source. No stated cut-off is given here; in the data, active = GI50 up to about 1.1 µM and inactive = higher.

As for `Cc1occc1C(=S)Nc1ccc(Cl)c(/C=N/OC(C)(C)C)c1`, the GI50 with TK-10 was 21.9 µM (inactive); with A498, 20.4 µM (inactive); in the experiment on MDA-MB-435 it was 16.6 µM (inactive); in the experiment with RPMI-8226 it was 16.7 µM (inactive); with HCT-15, 15 µM; in the experiment with A549, 16.6 µM (inactive). Moreover, the GI50 is 13.9 µM (inactive) in the experiment on UO-31; 21.8 µM (inactive) in the experiment with SNB-75; 18.9 µM (inactive) with OVCAR-8; 13 µM (inactive) in the experiment on HOP-92; 13.9 µM (inactive) in the experiment on U-251; 18.7 µM (inactive) with 786-0. Moreover, the GI50 in the experiment with SR was 12.9 µM (inactive); with SK-OV-3, 23 µM (inactive); in the experiment with PC-3, 16 µM (inactive); in the experiment with SK-MEL-2 it was 17.9 µM (inactive); in the experiment with NCI/ADR-RES, 14.7 µM (inactive); with SN12C it was 15.1 µM (inactive). In addition, the GI50 in the experiment with HCC 2998 is 16.6 µM (inactive); in the experiment on SF-268, 22.6 µM (inactive).

Consider `COc1ccccc1/C=C1\CCC(Cc2ccccc2)(CN(C)C)C1=O` (stereo unspecified), for which the GI50 in the experiment with TK-10 was 5.96 µM (inactive); with A498 it was 6.93 µM (inactive); with MDA-MB-435, 1.07 µM (active); with RPMI-8226 it was 0.612 µM (active); in the experiment on HCT-15, 0.29 µM; in the experiment with A549, 3.44 µM (inactive). For the same compound, the GI50 with UO-31 is 7.59 µM (inactive); in the experiment with SNB-75, 3.32 µM (inactive); with OVCAR-8, 2.33 µM (inactive); in the experiment on HOP-92 it was 27.5 µM (inactive); in the experiment with U-251, 0.524 µM (active); in the experiment on 786-0, 1.43 µM (inactive). Also, the GI50 is 0.0948 µM (active) in the experiment with SR; 8.36 µM (inactive) in the experiment on SK-OV-3; 1.03 µM (active) with PC-3; 6.53 µM (inactive) with SK-MEL-2; 0.989 µM (active) with NCI/ADR-RES; 3.75 µM (inactive) in the experiment on SN12C. Also, the values for the GI50 in the experiment on HCC 2998 and in the experiment on SF-268 were 3.13 µM (inactive) and 4.85 µM (inactive), respectively.

Regarding `Cc1cc(Cc2cc(C)c(NC(=O)C(=O)C3CCC4=C(SC5C=CC=CC5N4)C3=O)c(C(C)C)c2)cc(C(C)C)c1NC(=O)C(=O)C1CCC2=C(SC3C=CC=CC3N2)C1=O` (stereo unspecified), the GI50 is > 100 µM (inactive) in the experiment on TK-10; > 100 µM (inactive) in the experiment on A498; > 100 µM (inactive) in the experiment with MDA-MB-435; 37.4 µM (inactive) in the experiment with RPMI-8226; 34.9 µM in the experiment on HCT-15; 64 µM (inactive) in the experiment on A549. Moreover, the GI50 in the experiment on UO-31 was 41.3 µM (inactive); with SNB-75, 94.6 µM (inactive); in the experiment on OVCAR-8 it was 29.7 µM (inactive); with HOP-92, > 100 µM (inactive); with U-251, 50.1 µM (inactive); with 786-0 it was > 100 µM (inactive). Besides, the GI50 in the experiment with SR is 60.8 µM (inactive); in the experiment with SK-OV-3, > 100 µM (inactive); with PC-3, 25.1 µM (inactive); with SK-MEL-2 it was 45.5 µM (inactive); with NCI/ADR-RES, 35.5 µM (inactive); in the experiment with SN12C, 84.1 µM (inactive). The values for the GI50 in the experiment on HCC 2998 and in the experiment on SF-268 were 30.5 µM (inactive) and 74.8 µM (inactive), respectively.

Consider `Cc1cnc2nc(-c3cccc4ccccc34)cc(O)c2c1`, for which the GI50 in the experiment with A498 was 0.000352 µM (active); with MDA-MB-435, 0.000211 µM (active); in the experiment with RPMI-8226, 0.000487 µM (active); in the experiment on HCT-15, 0.000454 µM; in the experiment with A549, 0.0014 µM (active); in the experiment with UO-31, 0.00242 µM (active). In addition, the GI50 is 0.000407 µM (active) in the experiment with SNB-75; 0.00251 µM (active) with OVCAR-8; 0.182 µM (active) in the experiment with HOP-92; 0.000532 µM (active) in the experiment on U-251; 0.000791 µM (active) in the experiment on 786-0; 0.000352 µM (active) in the experiment on SR. In addition, the GI50 in the experiment on SK-OV-3 is 0.000706 µM (active); in the experiment on PC-3, 0.00121 µM (active); in the experiment on SK-MEL-2, 0.000335 µM (active); in the experiment with NCI/ADR-RES, 0.000428 µM (active); with SN12C, 0.00869 µM (active); with HCC 2998, 0.000723 µM (active). For the same compound, the GI50 in the experiment with SF-268 is 0.000516 µM (active).

With `CC(=O)OC1CCC2(C)C(CCC3C2CC(=O)C2(C)C3CC(N3CC3)C2C(C)=O)C1` (stereo unspecified), the GI50 was 19.6 µM (inactive) in the experiment on TK-10; 19.6 µM (inactive) in the experiment on A498; 17.9 µM (inactive) in the experiment with MDA-MB-435; 18 µM (inactive) with RPMI-8226; 18.9 µM in the experiment on HCT-15; 27.4 µM (inactive) in the experiment on A549. The GI50 in the experiment with UO-31 was 18 µM (inactive); in the experiment on SNB-75, 17.2 µM (inactive); in the experiment with OVCAR-8, 14 µM (inactive); in the experiment on HOP-92 it was 18.4 µM (inactive); in the experiment with U-251 it was 17.2 µM (inactive); with 786-0 it was 18.6 µM (inactive). Further, the GI50 in the experiment on SR was 1.78 µM (inactive); in the experiment with PC-3, 14.1 µM (inactive); with SK-MEL-2, 17.5 µM (inactive); in the experiment with NCI/ADR-RES it was 24.6 µM (inactive); with SN12C, 21.9 µM (inactive); with HCC 2998, 15.4 µM (inactive). Besides, the GI50 in the experiment on SF-268 was 11.6 µM (inactive).

On to `COC1(OC)CCCCCCCCC(OC)(OC)CCCCCCCC1`, for which the GI50 in the experiment on TK-10 is > 100 µM (inactive); in the experiment on A498, > 100 µM (inactive); with MDA-MB-435 it was > 100 µM (inactive); in the experiment with HCT-15, greater than 100 µM; with A549 it was > 100 µM (inactive); with UO-31 it was 0.553 µM (active). In addition, the GI50 in the experiment with SNB-75, in the experiment on OVCAR-8, in the experiment on HOP-92, in the experiment with U-251, in the experiment with 786-0 and in the experiment on SR was > 100 µM (inactive) in each case. Moreover, the GI50 in the experiment with SK-OV-3, with PC-3, in the experiment with SK-MEL-2, in the experiment with NCI/ADR-RES, in the experiment on SN12C and with HCC 2998 was > 100 µM (inactive) each time. In the experiment with SF-268, the GI50 is > 100 µM (inactive).

For `O=S(=O)(O)c1cccc2cccc(/N=N/c3c(O)ccc4ccccc34)c12`, the GI50 is > 100 µM (inactive) with TK-10; > 100 µM (inactive) in the experiment with A498; > 100 µM (inactive) with MDA-MB-435; greater than 100 µM in the experiment on HCT-15; > 100 µM (inactive) in the experiment on A549; > 100 µM (inactive) in the experiment with UO-31. The GI50 in the experiment with SNB-75, in the experiment on OVCAR-8, in the experiment with HOP-92, in the experiment with U-251, in the experiment on 786-0 and with SR was > 100 µM (inactive) throughout. The GI50 in the experiment with SK-OV-3, in the experiment on PC-3, with SK-MEL-2, in the experiment with NCI/ADR-RES, in the experiment on SN12C and in the experiment with HCC 2998 was > 100 µM (inactive) each time. For the same compound, the GI50 in the experiment on SF-268 was > 100 µM (inactive).

The values above are taken from ChEMBL document CHEMBL1201862, “PubChem BioAssay data set” (2004).
